Measurements reported in patent publication EP0056458B1, “Nitrosourea derivatives, a process for preparing same and therapeutic compositions” (Tanabe Seiyaku Co., Ltd., priority 1981, dated 1982).
Marks after values point to notes of the source that are not given here.

Experiments:
[1] = test system: tumor; experiment: Anti-tumor activity compared with a compound of the invention (no method given); conditions: compared with a respective comparative compound according to the invention
[2] = test system: Ehrlich ascites carcinoma; experiment: Preventive effect against the growth of Ehrlich ascites tumor (method A); assay type: in vivo, mice; conditions: for Therapeutic index: M. T. D./M. E. D.; for inhibition in vivo at 3.12 mg/kg/day: dose 3.12 mg/kg/day i.p. x 5 days; for inhibition in vivo at 6.25 mg/kg/day: dose 6.25 mg/kg/day i.p. x 5 days; for inhibition in vivo at 12.5 mg/kg/day: dose 12.5 mg/kg/day i.p. x 5 days; for minimal effective dose: minimum effective dose which shows 100% inhibition for the growth of the ascites tumor, dose column in mg/kg/day, read-out: MED; for Toxic: group of five mice; for inhibition in vivo at 0.19 mg/kg/day: dose 0.19 mg/kg/day i.p. x 5 days; for inhibition in vivo at 0.39 mg/kg/day: dose 0.39 mg/kg/day i.p. x 5 days; for inhibition in vivo at 0.78 mg/kg/day: dose 0.78 mg/kg/day i.p. x 5 days; for inhibition in vivo at 0.097 mg/kg/day: dose 0.097 mg/kg/day i.p. x 5 days; for inhibition in vivo at 0.195 mg/kg/day: dose 0.195 mg/kg/day i.p. x 5 days; for inhibition in vivo at 1.56 mg/kg/day: dose 1.56 mg/kg/day i.p. x 5 days
Experimental: (§1) (A) Preventive effect against the growth of Ehrlich ascites tumor:
(§2) 10^6 tumor cells of Ehrlich ascites carcinoma were inoculated intraperitoneally into a group of five female mice (ICR mice, body weight: 19-23 g). A test compound was dissolved in a physiological saline solution. (In the case where CCNU was employed as the test compound, said compound was suspended in a physiological saline solution containing 0.1% NIKKOL HCO-60 (trademark; a surface active agent manufactured by Nikko Chemicals Co. Ltd.)) and administered intraperitoneally to the mice. The administration of the test compound was begun 24 hours after the inoculation of the tumor cells and performed once a day for 5 days. The volume of ascites in the treated mice were measured after 7 days of the experiment.

[3] = as above; assay type: in vivo, mice; conditions: mouse, in vivo, ip; Maximum Tolerated Dose: maximum dose with 100% inhibition of Ehrlich ascites tumor growth without death of mice; dose column in mg/kg/day
Experimental: as §1, §2

[4] = test system: leukemic cells of L-1210; experiment: Effect on the life span of mice implanted with leukemic cells of L-1210 (method B); assay type: in vivo; conditions: for ILS (%): Increase in Life Span; for 60-day survivors: mice survived for 60 days/mice used
Experimental: (B) Effect on the life span of mice implanted with leukemic cells of L-1210:
10^5 leukemic cells of L-1210were inoculated intraperitoneally into a group of four male mice (BDF1 mice, body weight: 19-23 g). A test compound was dissolved in a physiological saline solution and administered intraperitoneally to the mice. The administration of the test compound was begun 24 hours after the inoculation of the leukemic cells and performed once a day for 5 days. The survival days of the treated mice were observed.

[5] = Mus musculus, Ehrlich, ip, 168 h, read-out: Inhibition ratio (%)
[6] = Mus musculus, Ehrlich, ip, 168 h, dose 50 mg/kg/day i.p. x 5 days, read-out: Inhibition ratio (%)
[7] = Mus musculus, Ehrlich, ip, 168 h
[8] = dose 100 mg/kg/day i.p. x 5 days
[9] = dose 6.25 mg/kg/day i.p. x 5 days
[10] = dose 12.5 mg/kg/day i.p. x 5 days
[11] = dose 25 mg/kg/day i.p. x 5 days
[12] = T (treated mice), dose 6.25 mg/kg/day i.p. x 5 days
[13] = T (treated mice), dose 12.5 mg/kg/day i.p. x 5 days
[14] = T (treated mice; figure after the slash is untreated control C), dose 25 mg/kg/day i.p. x 5 days
[15] = Mus musculus, Ehrlich, ip, 168 h, dose 25 mg/kg/day i.p. x 5 days, read-out: Inhibition ratio (%)
[16] = dose 50 mg/kg/day i.p. x 5 days
[17] = dose 3.12 mg/kg/day i.p. x 5 days
[18] = T (treated mice), dose 3.12 mg/kg/day i.p. x 5 days
[19] = dose 1.56 mg/kg/day i.p. x 5 days

Row | Compound | Therapeutic index [2] | inhibition in vivo at 3.12 mg/kg/day [2, 5] [%] | inhibition in vivo at 6.25 mg/kg/day [2, 5] [%] | inhibition in vivo at 12.5 mg/kg/day [2, 5] [%] | minimal effective dose [2, 7] [mg/kg/day] | MTD at 168 h [3] [mg/kg/day] | inhibition in vivo at 0.39 mg/kg/day [2, 5] [%] | inhibition in vivo at 0.78 mg/kg/day [2, 5] [%] | ILS (%) [4, 9] [%] | ILS (%) [4, 10] [%] | Mean survival days (T/C) [4, 12] | Mean survival days (T/C) [4, 13] | 60-day survivors [4, 9] | 60-day survivors [4, 10] | inhibition in vivo at 0.097 mg/kg/day [2, 5] [%] | inhibition in vivo at 0.195 mg/kg/day [2, 5] [%] | inhibition in vivo at 1.56 mg/kg/day [2, 5] [%] | inhibition in vivo at 25 mg/kg/day [2, 15] [%] | Toxic [2, 16] | other results
1 | O=C(NCCCl)N[C@H]1[C@H](O)[C@@H](CO)OC(O)[C@@H]1O (stereo partly drawn) [3 - [3 - (2 - chloroethyl)ureido] - 3 - deoxy - D - glucopyranose] |  |  |  |  |  |  |  |  |  |  |  |  |  |  |  |  |  |  |  | anti-tumor activity [1]: lower anti-tumor activity
2 | O=NN(CCCl)C(=O)NC1CCCCC1 [CCNU, 1-(2-chloroethyl)-1-nitroso-3-cyclohexylurea, reference compound] | 4 | 21.1 | 33.3 | 100 | 12.5 |  |  |  |  |  |  |  |  |  |  |  |  |  |  | inhibition in vivo at 50 mg/kg/day [2, 6]: 100%; Toxic [2, 8]: Toxic (5/5)*
3 | CCCCN(C(=O)N(CCCl)N=O)[C@@H]1[C@@H](O)[C@@H](OC)O[C@H](CO)[C@H]1O [Compound 1, 1 - (2 - chloroethyl) - 1 - nitroso - 3 - n - butyl - 3 - (methyl 3 - deoxy - a - D - glucopyranosid - 3 - yl)urea] | 64 | 100 |  | 100 | 0.78 | 50 | 59.5 | 100 | 111.3 | >745.1 | 15.0/7.1 days | >60.0/7.1 days | 0/4 | 4/4 |  |  |  |  |  | inhibition in vivo at 0.19 mg/kg/day [2, 5]: 14.3%; inhibition in vivo at 50 mg/kg/day [2, 6]: 100%; Toxic [2, 8]: Toxic (4/5)*; ILS (%) [4, 11]: >745.1%; Mean survival days (T/C) [4, 14]: >60.0/7.1 days; 60-day survivors [4, 11]: 4/4
4 | CO[C@H]1O[C@H](CO)[C@@H](O)[C@H](N(CC(C)C)C(=O)N(CCCl)N=O)[C@H]1O [Compound 2, 1 - (2 - chloroethyl) - 1 - nitroso - 3 - isobutyl - 3 - (methyl 3 - deoxy - a - D - glucopyranosid - 3 - yl)urea] | 128 |  | 100 |  | 0.195 | 25 | 100 |  | >597.7 | >597.7 | >60.0/8.6 days | >60.0/8.6 days | 4/4 | 4/4 | 8.1 | 100 | 100 | 100 | Toxic (1/5)* | ILS (%) [4, 17]: 57.0%; Mean survival days (T/C) [4, 18]: 13.5/8.6 days; 60-day survivors [4, 17]: 0/4
5 | CO[C@H]1O[C@H](CO)[C@@H](O)[C@H](N(C)C(=O)N(CCCl)N=O)[C@H]1O [Compound 3, 1 - (2 - chloroethyl) - 1 - nitroso - 3 - methyl - 3 - (methyl 3 - deoxy - a - D - glucopyranosid - 3 - yl)urea] | 64 |  | 100 |  | 0.39 | 25 | 100 |  | >614.3 | >614.3 | >60.0/8.4 days | >60.0/8.4 days | 4/4 | 4/4 | 2.7 | 81.1 | 100 | 100 | Toxic (1/5)* | ILS (%) [4, 19]: 70.2%; ILS (%) [4, 17]: >361.9%; Mean survival days (T/C) ([4]; T (treated mice), dose 1.56 mg/kg/day i.p. x 5 days): 14.3/8.4 days; Mean survival days (T/C) [4, 18]: >38.8/8.4 days; increase in the average life span ([4]; daily dose of 0.26 mg/kg intraperitoneally for five consecutive days): about 30%; 60-day survivors [4, 19]: 0/4; 60-day survivors [4, 17]: 2/4
6 | C=CCN(C(=O)N(CCCl)N=O)[C@@H]1[C@@H](O)[C@@H](OC)O[C@H](CO)[C@H]1O [Compound 4, 1 - (2 - chloroethyl) -1 - nitroso - 3 - allyl - 3 - (methyl 3 - deoxy - α - D - glucopyranosid - 3 - yl)urea] | 128 |  | 100 |  | 0.195 | 25 | 100 |  | 80.2 | >597.7 | 15.5/8.6 days | >60.0/8.6 days | 0/4 | 4/4 | 29.7 | 100 | 100 | 100 | Toxic (3/5)* | ILS (%) [4, 11]: >496.5%; Mean survival days (T/C) [4, 14]: >51.3/8.6 days; 60-day survivors [4, 11]: 3/4
7 | C#CCN(C(=O)N(CCCl)N=O)[C@@H]1[C@@H](O)[C@@H](OC)O[C@H](CO)[C@H]1O [Compound 5, 1 - (2 - chloroethyl) - 1 - nitroso - 3 - propargyl - 3 - (methyl 3 - deoxy - a - D - glucopyranosid - 3 - yl)urea] | 32 |  | 100 |  | 0.78 | 25 | 35.1 | 100 |  |  |  |  |  |  |  |  | 100 | 100 | Toxic (1/5)* | 
8 | COCCN(C(=O)N(CCCl)N=O)[C@@H]1[C@@H](O)[C@@H](OC)O[C@H](CO)[C@H]1O [Compound 6, 1 - (2 - chloroethyl) - 1 - nitroso - 3 - (2 - methoxyethyl) - 3 - (methyl 3 - deoxy - a - D - glucopyranosid - 3 - yl)urea] | 128 |  | 100 |  | 0.195 | 25 | 100 |  |  |  |  |  |  |  | 0 | 100 | 100 | 100 | Toxic (2/5)* | 
9 | O=NN(CCCl)C(=O)N[C@@H]1O[C@H](CO)[C@@H](O)[C@H](O)[C@H]1O [GANU, 1-(2-chloroethyl)-1-nitroso-3-β-(D-glucopyranosyl)urea, reference compound] | 32 | 100 |  | 100 | 0.39 | 12.5 | 100 | 100 |  |  |  |  |  |  |  |  |  |  |  | inhibition in vivo at 0.09 mg/kg/day ([2]; Mus musculus, Ehrlich, ip, 168 h, dose 0.09 mg/kg/day i.p. x 5 days, read-out: Inhibition ratio (%)): 4.2%; inhibition in vivo at 0.19 mg/kg/day [2, 5]: 79.2%; Toxic [2, 11]: Toxic (5/5)*
